Laboratory results as given in PubChem BioAssay (NCI).
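Protocol summary: plate cells (96-well), add compound at 5 concentrations, incubate 48 h, interpolate endpoints linearly. At the GI50, growth is halved. TGI: total growth inhibition.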

Experiments:
Experiment in all cases: NCI anticancer screen, dose series, 48 h
[1] = test system: HCT-116 colon
[2] = test system: CAKI-1 renal
[3] = test system: UACC-62 melanoma
[4] = test system: A498 renal
[5] = test system: UO-31 renal
[6] = test system: OVCAR-4 ovarian
[7] = test system: MALME-3M melanoma
[8] = test system: RPMI-8226 leukemia
[9] = test system: SN12C renal
[10] = test system: BT-549 breast
[11] = test system: 786-0 renal
[12] = test system: MDA-MB-468 breast
[13] = test system: SK-MEL-2 melanoma
[14] = test system: PC-3 prostate
[15] = test system: SW-620 colon
[16] = test system: HL-60(TB) leukemia
[17] = test system: RXF 393 renal
[18] = test system: HCC-2998 colon
[19] = test system: SK-MEL-28 melanoma
[20] = test system: HCT-15 colon
[21] = test system: MCF7 breast
[22] = test system: HOP-62 NSCLC
[23] = test system: SK-MEL-5 melanoma
[24] = test system: SK-OV-3 ovarian
[25] = test system: LOX IMVI melanoma
[26] = test system: NCI-H460 lung
[27] = test system: M14 melanoma
[28] = test system: CCRF-CEM leukemia
[29] = test system: U251 CNS
[30] = test system: SF-539 CNS
[31] = test system: OVCAR-3 ovarian
[32] = test system: SF-268 CNS
[33] = test system: NCI-H23 lung
[34] = test system: SNB-19 CNS
[35] = test system: OVCAR-8 ovarian
[36] = test system: HT29 colon
[37] = test system: ACHN renal
[38] = test system: COLO 205 colon
[39] = test system: TK-10 renal
[40] = test system: HOP-92 NSCLC
[41] = test system: KM12 colon
[42] = test system: T-47D breast
[43] = test system: MDA-MB-231 breast
[44] = test system: HS 578T breast
[45] = test system: K-562 leukemia
[46] = test system: EKVX NSCLC
[47] = test system: NCI-H226 lung
[48] = test system: SF-295 CNS
[49] = test system: NCI-H522 lung
[50] = test system: IGROV1 ovarian
[51] = test system: UACC-257 melanoma
[52] = test system: SNB-75 CNS
[53] = test system: SR leukemia
[54] = test system: OVCAR-5 ovarian
[55] = test system: NCI/ADR-RES ovarian
[56] = test system: MDA-MB-435
[57] = test system: A549 NSCLC
[58] = test system: MOLT-4 leukemia
[59] = test system: DU-145 prostate

For `COc1ccc(/C=C/c2nc3ccccc3c(=O)n2CC(=O)Nc2ccccc2)cc1`, the GI50 [1] was 1.26 µM, the TGI [1] was greater than 39.4 µM and the GI50 [2] was 1.7 µM. The TGI [2] was greater than 23.9 µM, the GI50 [3] was greater than 62.4 µM and the TGI [3] was greater than 100 µM. The GI50 [4] was 2.23 µM, the TGI [4] was 5.2 µM and the GI50 [5] was 1.44 µM. It also gave a TGI [5] of 3.64 µM, a GI50 [6] of 0.734 µM and a GI50 [7] of 5.2 µM. The TGI [7] was 55.9 µM, the GI50 [8] was greater than 100 µM and the TGI [8] was greater than 100 µM. For the same compound, the GI50 [9] was 1.82 µM, the TGI [9] was greater than 36.6 µM and the GI50 [10] was greater than 74.6 µM. It also gave a TGI [10] greater than 100 µM, a GI50 [11] of 1.19 µM and a TGI [11] of 3.18 µM. For the same compound, the GI50 [12] was 6.23 µM, the TGI [12] was greater than 53.7 µM and the GI50 [13] was greater than 77.8 µM. The TGI [13] was greater than 100 µM, the GI50 [14] was greater than 100 µM and the TGI [14] was greater than 100 µM. It also gave a GI50 [15] greater than 21.3 µM, a TGI [15] greater than 100 µM and a GI50 [16] greater than 100 µM. For the same compound, the TGI [16] was greater than 100 µM, the GI50 [17] was 2.23 µM and the TGI [17] was 10.6 µM. The GI50 [18] was greater than 100 µM, the TGI [18] was greater than 100 µM and the GI50 [19] was greater than 100 µM. For the same compound, the TGI [19] was greater than 100 µM, the GI50 [20] was greater than 100 µM and the TGI [20] was greater than 100 µM. For the same compound, the GI50 [21] was greater than 26 µM, the TGI [21] was greater than 100 µM and the GI50 [22] was 4.31 µM. For the same compound, the TGI [22] was 19.2 µM, the GI50 [23] was greater than 91.4 µM and the TGI [23] was greater than 100 µM. It also gave a GI50 [24] of 2.98 µM, a TGI [24] of 18.7 µM and a GI50 [25] of 4.38 µM. It also gave a TGI [25] greater than 100 µM, a GI50 [26] of 2.25 µM and a TGI [26] greater than 100 µM. The GI50 [27] was 27 µM, the TGI [27] was greater than 51 µM and the GI50 [28] was greater than 100 µM. The TGI [28] was greater than 100 µM, the GI50 [29] was 0.972 µM and the TGI [29] was 10.9 µM. It also gave a GI50 [30] of 3.42 µM, a TGI [30] of 14.5 µM and a GI50 [31] of 3.91 µM. It also gave a TGI [31] greater than 100 µM, a GI50 [32] of 19.1 µM and a TGI [32] greater than 100 µM. For the same compound, the GI50 [33] was 6.01 µM, the TGI [33] was greater than 62.4 µM and the GI50 [34] was 3.74 µM. The TGI [34] was greater than 73.9 µM, the GI50 [35] was 4.74 µM and the TGI [35] was greater than 100 µM. The GI50 [36] was greater than 100 µM, the TGI [36] was greater than 100 µM and the GI50 [37] was 0.718 µM. It also gave a TGI [37] of 2.49 µM, a GI50 [38] greater than 37.3 µM and a TGI [38] greater than 77.7 µM. For the same compound, the GI50 [39] was 2.05 µM, the TGI [39] was 5.43 µM and the GI50 [40] was 2.78 µM. It also gave a TGI [40] of 13.3 µM, a GI50 [41] greater than 100 µM and a TGI [41] greater than 100 µM. The GI50 [42] was 1.8 µM, the TGI [42] was greater than 28.9 µM and the GI50 [43] was 2.01 µM. The TGI [43] was 7.54 µM, the GI50 [44] was 2.79 µM and the TGI [44] was greater than 92.5 µM. The GI50 [45] was greater than 100 µM, the TGI [45] was greater than 100 µM and the GI50 [46] was greater than 69.4 µM. The TGI [46] was greater than 100 µM, the GI50 [47] was 2.42 µM and the TGI [47] was 16.4 µM. For the same compound, the GI50 [48] was 2.48 µM, the TGI [48] was 30.8 µM and the GI50 [49] was 16.8 µM. It also gave a TGI [49] greater than 100 µM, a GI50 [50] of 12.6 µM and a TGI [50] greater than 100 µM. The GI50 [51] was greater than 85.1 µM, the TGI [51] was greater than 100 µM and the GI50 [52] was 1.27 µM. The TGI [52] was 4.97 µM, the GI50 [53] was greater than 100 µM and the TGI [53] was greater than 100 µM. It also gave a GI50 [54] of 6.47 µM, a TGI [54] greater than 100 µM and a GI50 [55] of 4.64 µM. For the same compound, the TGI [55] was greater than 100 µM, the GI50 [56] was greater than 93.4 µM and the TGI [56] was greater than 100 µM. It also gave a GI50 [57] of 0.731 µM, a TGI [57] greater than 42.7 µM and a GI50 [58] greater than 100 µM. It also gave a TGI [58] greater than 100 µM, a GI50 [59] greater than 100 µM and a TGI [59] greater than 100 µM.
